According to patent publication US20070281857A1, “FORMIC ACID AS AN HERBICIDE” (MARRONE ORGANIC INNOVATIONS, priority 2006, published 2007):
Read-outs that look alike come from different tables or passages of the source.

What was measured:
[1] = test system: Seedlings of Lactuca sativa (lettuce)
Description: A high-throughput 96-well assay was used to test the efficacy of formic acid as a post-emergence, non-selective herbicide. Seedlings of Lactuca sativa (lettuce) were grown in 96-well plates under continuous light. Formic acid was added on the seedlings at a 5x-dilution series from 20% to 0%, and the minimum concentration needed for killing the seedling was recorded the next day.

[2] = test system: Poa annua (annual bluegrass); settings: for germination rate (%) annual bluegrass: one week, compared with control
Description: (§1) Pots with 3-cm diameter were filled with 60 mL of silt clay loam soil passed through a 2-mm sieve, and five (5) seeds of either Taraxacum officinale (dandelion, representing a broadleaved weed) or Poa annua (annual bluegrass, representing a grass weed) were planted on the top. A solid form of the composition containing corn gluten meal granules (>2 mm diameter) soaked in 0%, 10%, 15% or 20% formic acid solution and dried were placed on the top of the soil at rates 0.1, 0.25, 0.5 and 1.0 g/pot. The pots were kept at optimum water content under growth lights with a 12-h light/dark period at room temperature, and the number of germinated seeds was counted after one week.

[3] = test system: Taraxacum officinale (dandelion); settings: for germination rate (%) dandelion: one week, compared with control
Description: as §1

[4] = test system: dicot seeds; settings: charcoal saturated at 1 mL acid/1 g charcoal, applied to soil in flats; FIG. 2
From the text: (§2) Charcoal was applied to soil in flats containing a known number of seeds, either monocot or dicot, and germination was monitored in each of the treatment groups following intervals determined by the rate of germination in controls.

[5] = test system: monocot seeds; settings: charcoal saturated at 1 mL acid/1 g charcoal, applied to soil in flats; FIG. 1
From the text: as §2

[6] = test system: Lactuca sativa (lettuce); settings: for germination rate potting mix clay / germination rate soil (silty clay loam) clay / germination rate potting mix corn starch / germination rate soil (silty clay loam) corn starch / germination rate potting mix sand / germination rate soil (silty clay loam) sand: 7 days, relative to untreated control
Description: To test different carriers for formic acid, corn starch (powder), clay (granular, >2 mm diameter) and sand (small grain) were saturated with formic acid solutions (1, 3, and 5%) and dried at room temperature. Dry product (7.5 mL) was mixed with 60 mL of either potting mix or soil, and the mixture was placed in a small pot. Five (5) seeds of Lactuca sativa (lettuce) were planted on the top of each pot, and the seeds were covered with sand. The pots were incubated at room temperature under continuous light for 7 days, after which the number of seeds germinated in each pot was recorded and presented as a germination rate relative to the untreated control.

[7] = test system: apple seedlings
Description: In order to estimate the length of time during which the presence of formic acid in the soil would have a negative effect on new, and perhaps desirable, plantings, a residue study was performed. Holes were cut into the bottoms of flats. The flats were then filled with soil and treated with charcoal immersed in either formic acid or water, just as described above. Soil was watered regularly in order to simulate natural growing conditions and soil leaching. Ten apple seedlings were planted in individual flats containing one treatment or the other at intervals of one week and survival was monitored for one week following each planting.

[8] = test system: radish (Raphanus sativus); settings: spray, 1, 3 and 5% in water with 0.04% Tween 20
Description: (§3) The herbicidal effect of formic acid was compared with that of acetic acid in a greenhouse study using radish (Raphanus sativus) and wheat (Triticum aestivum) as test plants. Both formic acid and acetic acid were diluted in water at 1, 3, and 5%, and deionized water was used as a control. Tween 20 was added to each of the solutions at a rate 0.04% for use as a surfactant. Solutions were applied to plants using a small handheld sprayer. Plants were evaluated at 24- and 72-hours after treatment for the % control.

[9] = test system: wheat (Triticum aestivum); settings: 5%, spray
Description: as §3

[10] = test system: dicotyledonous radish plants (Raphanus sativas); settings: foliar spray at all concentrations (1%, 3%, 5%); one day post-treatment
From the text: (§4) In order to determine whether formic acid could be used as a foliar herbicide it was applied as a foliar spray to the leaves of dicotyledonous radish plants (Raphanus sativas) and monocotyledonous wheat plants (Triticum aestivum). Solutions were applied to plants using a small handheld sprayer.
(§5) Formic acid and acetic acid solutions at three concentrations (1%, 3%, 5%) were applied and water was used as a check. A barrier was inserted between the rows of plants on either side of the row being treated to avoid drift of sprays into neighboring rows. Plants were evaluated at 24-hour and 72-hour intervals for the number of surviving plants and a percentage was derived from this number in comparison with the number of plants originally present in the row.

[11] = test system: monocotyledonous wheat plants (Triticum aestivum); settings: one day post-treatment
From the text: as §4, §5

[12] = 10% formic acid in corn gluten meal granules >2 mm, 0.1 g/pot
[13] = 10% formic acid in corn gluten meal granules >2 mm, 0.25 g/pot
[14] = 10% formic acid in corn gluten meal granules >2 mm, 0.5 g/pot
[15] = 10% formic acid in corn gluten meal granules >2 mm, 1 g/pot
[16] = 15% formic acid in corn gluten meal granules >2 mm, 0.1 g/pot
[17] = 15% formic acid in corn gluten meal granules >2 mm, 0.25 g/pot
[18] = 15% formic acid in corn gluten meal granules >2 mm, 0.5 g/pot
[19] = 15% formic acid in corn gluten meal granules >2 mm, 1 g/pot
[20] = 20% formic acid in corn gluten meal granules >2 mm, 0.1 g/pot
[21] = 20% formic acid in corn gluten meal granules >2 mm, 0.25 g/pot
[22] = 20% formic acid in corn gluten meal granules >2 mm, 0.5 g/pot
[23] = 20% formic acid in corn gluten meal granules >2 mm, 1 g/pot
[24] = bigger granules (>2 mm) imbedded in 15% formic acid

## O=CO [Formic acid]
[1]; 5x-dilution series from 20% to 0%, recorded the next day
  minimum concentration needed for killing the seedling: 0.8%
[1]; formic acid 0.16%, next day
  effect on lettuce seedling: not harmful for the plant
[2]; [12]
  germination rate (%) annual bluegrass: 100%
[2]; [13]
  germination rate (%) annual bluegrass: 100%
[2]; [14]
  germination rate (%) annual bluegrass: 30%
[2]; [15]
  germination rate (%) annual bluegrass: 100%
[2]; [16]
  germination rate (%) annual bluegrass: 0%
[2]; [17]
  germination rate (%) annual bluegrass: 0%
[2]; [18]
  germination rate (%) annual bluegrass: 0%
[2]; [19]
  germination rate (%) annual bluegrass: 100%
[2]; [20]
  germination rate (%) annual bluegrass: 100%
[2]; [21]
  germination rate (%) annual bluegrass: 100%
[2]; [22]
  germination rate (%) annual bluegrass: 100%
[2]; [23]
  germination rate (%) annual bluegrass: 100%
[2]; [24]
  control of the grass seed germination: not effective
[3]; [12]
  germination rate (%) dandelion: 60%
[3]; [13]
  germination rate (%) dandelion: 30%
[3]; [14]
  germination rate (%) dandelion: 30%
[3]; [15]
  germination rate (%) dandelion: 0%
[3]; [16]
  germination rate (%) dandelion: 30%
[3]; [17]
  germination rate (%) dandelion: 30%
[3]; [18]
  germination rate (%) dandelion: 30%
[3]; [19]
  germination rate (%) dandelion: 0%
[3]; [20]
  germination rate (%) dandelion: 0%
[3]; [21]
  germination rate (%) dandelion: 0%
[3]; [22]
  germination rate (%) dandelion: 0%
[3]; [23]
  germination rate (%) dandelion: 0%
[3]; [24]
  control of a broadleaved weed: complete control
[4]
  effect on the germination of dicot seeds: profound effect
[5]
  effect on the germination of monocot seeds: profound effect
[6]; 1% formic acid on clay
  germination rate potting mix clay: 100
  germination rate soil (silty clay loam) clay: 100
[6]; 1% formic acid on corn starch
  germination rate potting mix corn starch: 100
  germination rate soil (silty clay loam) corn starch: 100
[6]; 1% formic acid on sand
  germination rate potting mix sand: 100
  germination rate soil (silty clay loam) sand: 100
[6]; 3% formic acid on clay
  germination rate potting mix clay: 80
  germination rate soil (silty clay loam) clay: 100
[6]; 3% formic acid on corn starch
  germination rate potting mix corn starch: 100
  germination rate soil (silty clay loam) corn starch: 75
[6]; 3% formic acid on sand
  germination rate potting mix sand: 80
  germination rate soil (silty clay loam) sand: 100
[6]; 5% formic acid imbedded in clay granules
  control of germination of lettuce, comparison of tested products: best control of germination
[6]; 5% formic acid on clay
  germination rate potting mix clay: 60
  germination rate soil (silty clay loam) clay: 50
[6]; 5% formic acid on corn starch
  germination rate potting mix corn starch: 100
  germination rate soil (silty clay loam) corn starch: 100
[6]; 5% formic acid on sand
  germination rate potting mix sand: 20
  germination rate soil (silty clay loam) sand: 100
[7]; "By week 1, however, and in all subsequent weeks", identical to water group
  survival of planted seedlings: 100%
[7]; formic acid on charcoal in watered soil
  residual herbicidal effect lasting: less than one week
[7]; week 1, flats treated with charcoal immersed in formic acid, water flats 100 percent
  planted seedlings survived: 80%
[8]; 24-h
  % control of radish plants: 100%
[8]; 72-h
  % control of radish plants: 100%
[9]; 24-h
  % control of wheat seedlings: 1%
[9]; 72-h
  % control of wheat seedlings: 4%
[10]
  killing of foliage of radish plants: completely killed all the foliage
[11]; foliar spray 1%
  wheat foliage killed: none of the foliage killed
[11]; foliar spray 5%
  wheat plants killed: 10%
